In ChEMBL document CHEMBL1128614, “Proctolin and related N-methylated pentapeptides selectively contract locust foregut but not rat ileum” (1995):
Square brackets hold non-standard residues; d marks the D form. Peptide text beside a SMILES is read from it. NMeT = CN[C@H](C(=O)O)[C@@H](C)O; NMeL = CN[C@@H](CC(C)C)C(=O)O

Tests used:
Type in all cases: functional
Schistocerca gregaria [1] = experiment: Tested for contraction Schistocerca gregaria gut at concentrations ranging from 10 nM to 5 uM and maximum response concentration reported
Schistocerca gregaria [2] = experiment: Tested for tissue (foreguts isolated from Schistocerca gregaria) contraction response; No activity
Schistocerca gregaria [3] = experiment: Tested for tissue (foreguts isolated from Schistocerca gregaria) contraction response at 80 uM
Schistocerca gregaria [4] = experiment: Tested for tissue (foreguts isolated from Schistocerca gregaria) contraction response at 2 uM

CC(C)C[C@@H](NC(=O)[C@@H](Cc1ccc(O)cc1)NC(=O)[C@@H](N)CCCN=C(N)N)C(=O)N1CCC[C@@H]1C(=O)N[C@H](C(=O)O)[C@H](C)O
Concentration (Schistocerca gregaria [1]): 1 µM

CC(C)C[C@@H](NC(=O)[C@@H](Cc1ccc(O)cc1)N(C)C(=O)[C@@H](N)CCCN=C(N)N)C(=O)N1CCC[C@@H]1C(=O)N[C@H](C(=O)O)[C@H](C)O
Activity (Schistocerca gregaria [2]): No activity

CC(C)C[C@@H](C(=O)N1CCC[C@H]1C(=O)N[C@H](C(=O)O)[C@@H](C)O)N(C)C(=O)[C@H](Cc1ccc(O)cc1)NC(=O)[C@@H](N)CCCN=C(N)N (H-RY[NMeL]PT-OH)
Max contraction (Schistocerca gregaria [3]): 52%

CC(C)C[C@H](NC(=O)[C@H](Cc1ccc(O)cc1)NC(=O)[C@@H](N)CCCN=C(N)N)C(=O)N1CCC[C@H]1C(=O)N(C)[C@H](C(=O)O)[C@@H](C)O (H-RYLP[NMeT]-OH)
Max contraction (Schistocerca gregaria [4]): 78%
